Data as given in patent US20090227619A1, “Harmine derivatives, intermediates used in their preparations, preparation processes and use therefo” (priority 2003, published 2009).
Where two headings read alike, the source gives them in different places.

Tests used:
[1] = system: Lovo; assay: In vitro cytotoxicity, IC50 by MTT method, Lovo; format: cell-based; conditions: Homo sapiens; Lovo cell strain; read-out: IC50 Lovo
Procedure, shortened: (§1)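 Cells in RPMI1640 with 10% FBS at 37° C, 5% CO2 were seeded at 10^5/ml and exposed to a compound concentration gradient for 48 h, at least three replicates, solvent controls.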

[2] = system: Lewis lung cancer; conditions: for Inhibition rate (%) Lewis cancer: comparison table 43, in vivo; for Inhibition rate (%) Lewis cancer / Body weight of the animals, end, First time / Body weight of the animals, end, Second time / Body weight of the animals, beginning, First time / Inhibition rate, First time / Weight of the tumor X ± SD, First time / Body weight of the animals, beginning, Second time / Inhibition rate, Second time / Weight of the tumor X ± SD, Second time: Lewis lung cancer; for Body weight of the animals, end, First time / Body weight of the animals, end, Second time: ip × 10qd;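 for all read-outs here: mice implanted subcutaneously in the axilla with Lewis lung tumor cells, treated starting the following day, killed roughly three weeks after implantation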
[3] = system: PLA-801; assay: In vitro cytotoxicity, IC50 by MTT method, PLA-801; format: cell-based; conditions: PLA-801 cell strain; read-out: IC50 PLA-801
Procedure, shortened: as §1

[4] = system: S180 sarcoma; conditions: S180 sarcoma; for Inhibition rate (%) S180 sarcomata: comparison table 43, in vivo; for Body weight of the animals, beginning, First time / Body weight of the animals, end, First time / Inhibition rate, First time / Weight of the tumor X ± SD, First time / Body weight of the animals, beginning, Second time / Body weight of the animals, end, Second time / Inhibition rate, Second time: ip × 10qd
[5] = system: HepG2; assay: In vitro cytotoxicity, IC50 by MTT method, HepG2; format: cell-based, human; conditions: Homo sapiens; HepG2 cell strain; read-out: IC50 HepG2
Procedure, shortened: as §1

[6] = system: BGC-823; assay: In vitro cytotoxicity, IC50 by MTT method, BGC-823; format: cell-based; conditions: Homo sapiens, BGC-823; BGC823 cell strain; read-out: IC50 BGC823
Procedure, shortened: as §1

[7] = system: Bel-7402; assay: In vitro cytotoxicity, IC50 by MTT method, Bel-7402; format: cell-based; conditions: Homo sapiens, Bel-7402; Bel7402 cell strain; read-out: IC50 Bel7402
Procedure, shortened: as §1

[8] = system: NIH3T3; assay: In vitro cytotoxicity, IC50 by MTT method, NIH3T3; format: cell-based; conditions: Mus musculus; NIH3T3 cell strain; read-out: IC50 NIH3T3
Procedure, shortened: as §1

[9] = system: Hela; assay: In vitro cytotoxicity, IC50 by MTT method, Hela; format: cell-based; conditions: Homo sapiens; Hela cell strain; read-out: IC50 Hela
Procedure, shortened: as §1

[10] = system: Kunming mice; conditions: summary Table 34, compounds marked *, results [153] of the previous tests; in mg/kg; cited from earlier work
[11] = system: Kunming mice; conditions: for Death rate: single i.p.
[12] = system: CT-DNA; assay: UV absorption spectrum method with CT-DNA; format: binding; conditions: CT-DNA 40 ug/ml, compound 20 uM, 37° C. for 2 h, OD at 260 nm
[13] = Solubility (physico-chemical data tables); conditions: qualitative; Table 12, 3,9-disubstituted β-carboline derivatives
[14] = in vivo; conditions: both, Kunming, mouse, ip
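Throughout, for Death rate: acute toxicity in Kunming mice grouped by sex, one intraperitoneal dose at five graded levels in Tween-80 plus 0.5% CMC-Na, deaths monitored over two weeks.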

In the case of `CCn1c2ccccc2c2cc(C(=O)OC)ncc21` [Compound 27, methyl 9-ethyl-β-carboline-3-carboxylate], the IC50 [1] is reported as 110 µM, the “Anti-tumor activity compared with harmine (compound 1)” value ([2]; Lewis lung cancer in mice, among 22 compounds tested) is reported as “a little worse than or equivalent to that of harmines” and the “Inhibition rate (%) Lewis cancer” value [2] is reported as 30.5%. The IC50 [3] was 290 µM, the “Inhibition rate (%) S180 sarcomata” value [4] was 29.0% and the IC50 [5] was 160 µM. For the same compound, the IC50 [6] was 250 µM, the IC50 [7] was 530 µM and the IC50 [8] was 130 µM. The IC50 [9] was 210 µM and the LD50 [10] was 95.06.

In the case of `O=C(O)c1cc2c3ccccc3n(Cc3ccccc3)c2cn1` [Compound 37, 9-benzyl-β-carboline-3-carboxylic acid], the IC50 [1] is reported as 40 µM, the “Body weight of the animals, end, First time” value (shortened to “Body weight … end, First time”) ([2]; Dosage 25 (mg/ml)) is reported as 24.1 g and the “Body weight of the animals, end, Second time” value (“Body weight … end, Second time” below) ([2]; Dosage 25 (mg/ml)) is reported as 24.9 g. For the same compound, the “Body weight of the animals, beginning, First time” value ([2]; Dosage 25, ip × 10qd) was 18.6 g, the “Inhibition rate, First time” value ([2]; Dosage 25, ip × 10qd) was 27.09% and the “Weight of the tumor X ± SD, First time” value ([2]; Dosage 25, ip × 10qd) was 1.83 ± 0.17 g. The “Body weight of the animals, beginning, Second time” value ([2]; Dosage 25, ip × 10qd) was 19.6 g, the “Inhibition rate, Second time” value ([2]; Dosage 25, ip × 10qd) was 29.24% and the “Weight of the tumor X ± SD, Second time” value ([2]; Dosage 25, ip × 10qd) was 1.67 ± 0.16 g. The “Body weight … end, First time” value ([2]; Dosage 50 (mg/ml)) was 23.9 g, the “Body weight … end, Second time” value ([2]; Dosage 50 (mg/ml)) was 24.3 g and the “Body weight of the animals, beginning, First time” value ([2]; Dosage 50, ip × 10qd) was 18.9 g. For the same compound, the “Inhibition rate, First time” value ([2]; Dosage 50, ip × 10qd) was 39.04%, the “Weight of the tumor X ± SD, First time” value ([2]; Dosage 50, ip × 10qd) was 1.53 ± 0.14 g and the “Body weight of the animals, beginning, Second time” value ([2]; Dosage 50, ip × 10qd) was 19.5 g. The “Inhibition rate, Second time” value ([2]; Dosage 50, ip × 10qd) was 43.22%, the “Weight of the tumor X ± SD, Second time” value ([2]; Dosage 50, ip × 10qd) was 1.34 ± 0.14 g and the “Inhibition rate (%) Lewis cancer” value [2] was 43.22%. For the same compound, the IC50 [3] was 100 µM, the “Body weight of the animals, beginning, First time” value ([4]; Dosage 25 (mg/ml)) was 19.6 g and the “Body weight … end, First time” value ([4]; Dosage 25 (mg/ml)) was 26.9 g. The “Inhibition rate, First time” value ([4]; Dosage 25 (mg/ml)) was 23.86%, the “Weight of the tumor X ± SD, First time” value ([4]; Dosage 25 (mg/ml)) was 2.17 ± 0.18 g and the “Body weight of the animals, beginning, Second time” value ([4]; Dosage 25 (mg/ml)) was 20.4 g. The “Body weight … end, Second time” value ([4]; Dosage 25 (mg/ml)) was 25.1 g, the “Inhibition rate, Second time” value ([4]; Dosage 25 (mg/ml)) was 24.21% and the “Weight of the tumor X ± SD, Second time” value ([4]; Dosage 25, ip × 10qd) was 2.16 ± 0.27 g. The “Body weight of the animals, beginning, First time” value ([4]; Dosage 50 (mg/ml)) was 19.7 g, the “Body weight … end, First time” value ([4]; Dosage 50 (mg/ml)) was 26.3 g and the “Inhibition rate, First time” value ([4]; Dosage 50 (mg/ml)) was 34.39%. For the same compound, the “Weight of the tumor X ± SD, First time” value ([4]; Dosage 50 (mg/ml)) was 1.87 ± 0.13 g, the “Body weight of the animals, beginning, Second time” value ([4]; Dosage 50 (mg/ml)) was 20.6 g and the “Body weight … end, Second time” value ([4]; Dosage 50 (mg/ml)) was 24.7 g. For the same compound, the “Inhibition rate, Second time” value ([4]; Dosage 50 (mg/ml)) was 32.98%, the “Weight of the tumor X ± SD, Second time” value ([4]; Dosage 50, ip × 10qd) was 1.91 ± 0.23 g and the “Inhibition rate (%) S180 sarcomata” value [4] was 34.39%. For the same compound, the IC50 [5] was 100 µM, the Death rate ([11]; 50% male 50% female mice, 240 mg/kg) was 100 and the Death rate ([11]; 50% male 50% female mice, 300 mg/kg) was 100. The Death rate ([11]; female mice, 240 mg/kg) was 100, the Death rate ([11]; female mice, 300 mg/kg) was 100 and the Death rate ([11]; male mice, 240 mg/kg) was 100. For the same compound, the Death rate ([11]; male mice, 300 mg/kg) was 100, the LD50 ([11]; mouse, in vivo, ip) was 142 to 189 mg/kg and the “Influence on the UV absorption of DNA” value [12] was “increase the UV absorption of DNA”. It also gave an IC50 [6] of 50 µM, an IC50 [7] of 110 µM and an IC50 [8] of 50 µM. For the same compound, the Solubility [13] was “soluble in DMSO”, the IC50 [9] was 90 µM and the LD50 at 2 weeks [14] was 163 mg/kg.
